# Laboratory results reported in patent US8664251B1, “Ryanodine receptor inhibitors for treatment of T-cell mediated disorders” (The Regents of the University of California, priority 2009, dated 2014).
# Tests used:
# Jurkat T cells [1] = assay: CFSE proliferation assay, Jurkat T cells; format: cell-based, human; settings: 400 μM Ry or 30 μM Da, 72 hours
# Description: (§1) Cell cultures and chemicals were as described in the Example 1. Proliferation assay—Cell division track assay was conducted using carboxyfluorescein succinimidyl ester (CFSE) proliferation kit (Molecular probes). Stock solution of CFSE (4 mM) was prepared in DMSO. Cells were washed, resuspended in PBS containing 4 μM CFSE at density 1×10^6 cells/ml, and incubated at 37° C. for 10 min. Labeling was quenched by adding 5× volume of RPMI 1640 culture media containing 10% FBS. After washing 3 times with RPMI 1640+10% FBS, cells were placed into FBS-free cell culture media to abolish cell division and kept overnight in 5% CO2 at 37° C. After overnight incubation, the CFSE-labeled cells were pellet down and fraction of them (˜50000) were fixed with 1% paraformaldehyde in PBS and analyzed by flow cytometry to establish the CFSE fluorescence profile of undivided cells. […] Fluorescence intensity was measured at 488 nm using FACScan flow cytometer and CellQuest software (Becton Dickinson Bioscience, Mountain View, Calif.). The number of cell divisions was calculated using FlowJo software (Tree Star Inc, Ashland, Oreg.). […]
# (§2) Freshly isolated CD3^+ resting human T cells or Jurkat T cells were loaded with CFSE and fraction of them was fixed with 1% paraformaldehyde in PBS and analyzed by flow cytometry to establish the CFSE fluorescence profile of undivided cells (time 0). […]
# Jurkat T cells [2] = assay: Manganese quench of fura-2 fluorescence (divalent cation influx via SOC channels); format: cell-based, human; settings: Jurkat T cells preincubated 30 min with 400 μM Ry; with or without 30 μM CPA; n=5
# Source text: Because Mn^2+ readily passes through SOC channels (Missiaen, L., Declerck, I., Droogmans, G., Plessers, L., De Smedt, H., Raeymaekers, L., and Casteels, R. (1990) J Physiol 427, 171-186) and is unlikely to be transported from the cytosol (Chiesi, M., and Inesi, G. (1980) Biochemistry 19(13), 2912-2918; Chiesi, M., and Inesi, G. (1981) Arch Biochem Biophys 208(2), 586-592), the rate of fura-2 quenching in the presence of Mn^2+ was used as a measure of divalent cation influx into the bulk cytoplasm in intact cells. The extracellular solution used in all Mn^2+ quench experiments contained (in mM): 130 NaCl, 5.6 KCl, 1 MgCl2, 0.3 CaCl2, 0.5 MnCl2, 10 HEPES, 10 D-glucose; pH 7.3. Changes in Ca^2+-independent fluorescence due to Mn^2+ quench were determined using method described by Zhou & Neher (Zhou, Z., and Neher, E. (1993) J Physiol 469, 245-273). Briefly, background corrected fura-2 fluorescence excited at 340 nm (F340) was plotted against background corrected fura-2 fluorescence excited at 380 nm (F380) during the initial 10 seconds following application of 30 μM cyclopiazonic acid (CPA). The slope of the F340 versus F380 relationship equals the ‘isocoefficient’ α. The fluorescence value, Fi, which is unaffected by changes in [Ca^2+]i, was determined as: […]. […]
# Jurkat T cells [3] = assay: IL-2 production assay (ELISA), PHA-stimulated Jurkat T cells; format: cell-based, human; settings: Ry 400 μM or Da 30 μM applied 30 min prior to PHA, 24 hours, p<0.01, n=6
# Description: Jurkat T cells were washed 3 timed with PBS and resuspended in FBS-free cell culture media at density 0.8×10^6 cells/ml and seeded into 96 well tissue culture plate (0.4 ml per well) and then stimulated with […] mitogenic lectin phytohaemagglutinin P (PHA). Some cells were pre-incubated for 30 min at 37° C. with, Ry (400 μM), or dantrolene (30 μM) prior to stimulation with PHA. After 24 hours of incubation, cells culture supernatants were collected and contents of IL-2 was determined by ELISA using Quantikine kits (R&D systems, Minneapolis, Minn.) according to manufacturer instructions.
# activated human T cells = assay: Fura-2 calcium imaging in activated human T cells; format: cell-based; settings: for [Ca^2+]i elevation evoked by readdition of extracellular Ca^2+ ([Ca^2+]SOCE): activated T cells preincubated 30 min with 500 μM Ry or 30 μM Da, p<0.01, n=7
# Description: (§3) All studies involving human subjects were performed after approval by UC Davis Institutional Review Board and after all subjects gave written informed consent. Resting CD3^+ human lymphocytes were isolated from the peripheral blood of healthy consented adults using RosetteSep™ human lymphocyte enrichment kit (Stem Cell Tech.) following the manufacturer's instructions. Resting T cells were resuspended at 0.5−1×10^6 cells/ml in […] medium supplemented with 10 mM HEPES, 10% fetal bovine serum, 2% L-glutamine, 2% vitamins solution, 1% RPMI amino acids solution, and 0.01% β-mercaptoethanol and maintained in suspension in 5% CO2 at 37° C. Resting T cells were activated on the day of isolation by incubation with either PHA ([…]) or anti-CD3 antibody coated onto the tissue culture plates and soluble anti-CD28 antibody (5 m/ml; BD Biosciences). Resting T cells were taken for analysis on the day of isolation, whereas activated T cells were tested 4-5 days after activation.
# Cell cultures and chemicals were as described in the Example 1. Before experiment, cells were plated on poly-l-lysine-coated glass-bottom clambers and then loaded with 1 μM fura-2/AM and pluronic F-127 for 5 min in modified Tyrode solution containing (in mM): 130 NaCl, 5.6 KCl, 1 MgCl2, 2 CaCl2, 10 HEPES, 10 D-glucose; pH 7.3. After washing, cells were incubated for additional 30 min at 37° C. […] In nominally Ca^2+-free solution, Ca^2+ was omitted.
# Fluorescence images were acquired from adherent cells using a SenSys CCD camera (Roper Scientific, Tucson, Ariz.) and a 40× oil immersion Zeiss objective on a Zeiss Axiovert 200 inverted microscope (Thornwood, N.Y.). Lambda DG-4 filter changer (Sutter Instrument, Novato, Calif.) was used for switching between 340 and 380 nm excitation wavelengths. All experiments were performed at room temperature. Solution exchange was performed via a gravity-driven perfusion system. Solution exchange in the recording chamber was completed within 5 s. […] Unless otherwise indicated, in each experiment changes in [Ca^2+]i were recorded from 15-20 cells and then averaged.
# resting human T cells = assay: Fura-2 calcium imaging in resting human T cells; format: cell-based; settings: resting T cells preincubated 30 min with 30 μM Da or 500 μM Ry; CPA then Ca^2+ readdition
# Description: as §3
# Cell cultures and chemicals were as described in the Example 1. […]
# Fluorescence images were acquired from adherent cells using a SenSys CCD camera (Roper Scientific, Tucson, Ariz.) and a 40× oil immersion Zeiss objective on a Zeiss Axiovert 200 inverted microscope (Thornwood, N.Y.). […] Unless otherwise indicated, in each experiment changes in [Ca^2+]i were recorded from 15-20 cells and then averaged.
# human T cells = assay: CFSE proliferation assay, human T cells activated with anti-CD3/CD28 Ab; format: cell-based; settings: 400 μM Ry or 30 μM Da; anti-CD3/CD28 Ab activation
# Description: as §1, §2
# Jurkat T cells [4] = assay: Fura-2 calcium imaging in Jurkat T cells; format: cell-based, human
# Description: Cell cultures and chemicals were as described in the Example 1. Before experiment, cells were plated on poly-l-lysine-coated glass-bottom clambers and then loaded with 1 μM fura-2/AM and pluronic F-127 for 5 min in modified Tyrode solution containing (in mM): 130 NaCl, 5.6 KCl, 1 MgCl2, 2 CaCl2, 10 HEPES, 10 D-glucose; pH 7.3. After washing, cells were incubated for additional 30 min at 37° C. Some cells were incubated in Modified Tyrode solution containing 400 μM Ry, 30 μM dantrolene, or vehicles (methanol or, ethanol, or DMSO) alone for 30 min at 37° C. In nominally Ca^2+-free solution, Ca^2+ was omitted.
# Fluorescence images were acquired from adherent cells using a SenSys CCD camera (Roper Scientific, Tucson, Ariz.) and a 40× oil immersion Zeiss objective on a Zeiss Axiovert 200 inverted microscope (Thornwood, N.Y.). Lambda DG-4 filter changer (Sutter Instrument, Novato, Calif.) was used for switching between 340 and 380 nm excitation wavelengths. All experiments were performed at room temperature. Solution exchange was performed via a gravity-driven perfusion system. Solution exchange in the recording chamber was completed within 5 s. The vehicles-containing solutions (methanol or DMSO) were applied in place of the drugs in all control experiments. Data acquisition was performed using MetaFluor v7.0 software (Universal Imaging, Downingtown, Pa.). [Ca^2+]i values were estimated from fura-2 calibration as described previously (Grynkiewicz, G., Poenie, M., and Tsien, R. Y. (1985) J Biol Chem 260(6), 3440-3450). Kd was taken as 248 nM (Fanger, C. M., Neben, A. L., and Cahalan, M. D. (2000) J Immunol 164(3), 1153-1160). Unless otherwise indicated, in each experiment changes in [Ca^2+]i were recorded from 15-20 cells and then averaged.
# murine T cell [5] = settings: murine T cells; cited from earlier work
# murine T cell [6] = settings: cited from earlier work
Molecule,Jurkat T cell proliferation (CFSE fluorescence profile) (Jurkat T cells [1]),divalent cation influx (Mn^2+ quench of fura-2 fluorescence) (Jurkat T cells [2]),PHA-induced IL-2 production (Jurkat T cells [3]),[Ca^2+]i elevation evoked by readdition of extracellular Ca^2+ ([Ca^2+]SOCE) (activated human T cells),time courses of changes in [Ca^2+]i (resting human T cells),normal human activated T cell proliferation (CFSE fluorescence profile) (human T cells),PHA-induced [Ca^2+]i transients in the absence of extracellular Ca^2+ (Jurkat T cells [4]; Jurkat T cells preincubated with 400 μM Ry),"CPA-induced [Ca^2+]i transients following PHA in the absence of extracellular Ca^2+ (Jurkat T cells [4]; Jurkat T cells preincubated with 400 μM Ry, 30 μM CPA)","reduction of maximal amplitudes of [Ca^2+]i transients during Ca^2+ readdition following TCR stimulation (Jurkat T cells [4]; Jurkat T cells preincubated with 400 μM Ry, PHA then 0.5 mM Ca^2+ readdition) [%]","[Ca^2+]i transients evoked by Ca^2+ readdition ([Ca^2+]SOCE) (Jurkat T cells [4]; Jurkat T cells preincubated with Ry, 2 mM Ca^2+ readdition after CPA, p<0.01, n=6)","store refilling (CPA2/CPA1 ratio) (Jurkat T cells [4]; Jurkat T cells preincubated with Ry, p<0.01, n=6)","Ca^2+ release on extracellular (acute) application (Jurkat T cells [4]; Ry 400 applied in nominally Ca^2+-free extracellular solution, Jurkat T cells, n=5)",IL-2 production following TCR stimulation (murine T cell [5]),murine T cell proliferation following TCR stimulation (murine T cell [6]),"Ca^2+ liberation from the ryanodine-sensitive store (activated human T cells; caffeine 20 mM, activated human T cells, normal Tyrode solution)"
ryanodine,inhibit,does not induce Ca^2+ release (FIG. 2 D) or affect divalent ction influx,significantly inhibited,reduced,did not affect,inhibit,did not significantly affect,did not significantly affect,42,significantly downregulated,facilitated store refilling,does not induce Ca^2+ release,,,
N.N.N.N.N.N.N.N.N.N.N.N.N.N.[Cl-].[Cl-].[Cl-].[Cl-].[Cl-].[Cl-].[O-2].[O-2].[Ru+3].[Ru+3].[Ru+4] [ruthenium red],,,,,,,,,,,,,inhibit,inhibit,
"O=C1CN(N=Cc2ccc(-c3ccc([N+](=O)[O-])cc3)o2)C(=O)N1 [dantrolene, 1-[[[5-(4-nitrophenyl)-2-furanyl]methylene]amino]-2,4-imidaz olidinedione]",inhibit,,significantly inhibited,reduced,did not affect,inhibit,,,,,,,inhibit,inhibit,
Cn1c(=O)c2c(ncn2C)n(C)c1=O [caffeine],,,,,,,,,,,,,,,produced Ca^2+ liberation
